Patent US8796217B2, “Use of transesterified olive oil in the cosmetic field” (Hallstar Italia S.R.L., priority 2008, dated 2014)

Columns and labels:
[1] = test system: Reconstructed Human Epidermis (RHE) keratinocytes; assay: MTT assay of keratinocyte vitality on the RHE; type: cell-based; details: MTT assay on RHE at 24 hour instant
Experimental: Keratinocyte vitality was ascertained using the MTT assay: MTT salt (3-(4,5-dimetil-tiaol-2-il)-2,5 diphenyltetrazolium bromide) may be reduced through the mitochondrial enzyme succinate-dehydrogenase found in living cells. The reduction product, formazan crystals, may be quantified by optic density at […] and is proportional to the number of living cells. The MTT assay was performed on the RHE at the 24 hour instant.

[2] = Transepidermal water loss (TEWL) after topical application in volunteers; type: in vivo, human; details: 5% ingredient applied topically, ten volunteers
Excerpt: The clinical efficiency of bio-compatible liquid crystals generated by cetearyl-olivate, sorbitan-olivate was clinically verified. Firstly, its skin biocompatibility was verified in a study on its effect on transepidermal water loss (TEWL) with respect to other lipidic compositions. TEWL is a convalidated method for assessing the skin permeability barrier function (Fluhr, 2006). Ten volunteers have applied topically identical concentrations (5%) of the following ingredients: cetearyl-olivate, sorbitan-olivate; cetearyl alcohol, cetearyl-glucoside and poliglyceril-3 methylglucose distearate. The results—see FIG. 4—have shown that the application of cetearyl-olivate, sorbitan-olivate reduced the increase of TEWL by 29% over control formulae (FIG. 2).

Compound	Cell vitality (%) [1] [%]	induced TEWL / water loss following application [2]
Cn1c(=O)c2c(ncn2C)n(C)c1=O [Control (pure caffeine), caffeine]	100	
poliglyceril-3 methylglucose distearate		activate excessive water loss following application
